Measured values from patent publication US20110166121A1 (LG LIFE SCIENCES LTD., priority 2008, published 2011).
Where a name gives a salt, the structure may show the parent alone.

test system: Human platelet aggregation caused by ADP; test: Inhibition of ADP-induced platelet aggregation (Mimic-human PRP); format: cell-based; conditions: 20 μM ADP, human platelet concentrate diluted with PPP, absorption at 595 nm
Description: Platelet Preparation for Aggregation Studies
Human platelet aggregation reaction test is a functional experiment method to verify whether a test compound is an agonist or an antagonist to ADP receptor. […] The platelet product isolated from whole blood was purchased from Chung-Nam blood center (Dae-joen, South Korea). The platelet was isolated from 400 mL of whole blood containing 56 mL of CPDA-1 anticoagulant. To isolate the platelet product, 400 mL of whole blood was centrifuged at 260×g for 5 minutes, and then obtained PRP (platelet rich plasma) was secondary centrifuged at 370×g for 6 minutes. Platelet pellet (10^9/mL) was suspended with 45 mL of plasma and then agitated over 1 hour at 22° C. blood reservoir to stabilize it. The stabilized platelet product was used in the experiment within 24 hours. PCs (Platelet Concentrates) were gently transferred to a new 50 ml-falcon tube. The number of platelet was counted by using animal blood counter (ABC Vet, ABX diagnostics, France). The volume of 30 mL of PCs collected from same donor was centrifuged at 1500 g for 10 min at room temperature to prepare platelet-poor plasma (PPP). The platelet count was adjusted to platelet number of 3˜4×10^8/mL by diluting with PPP.
Evaluation on Inhibitory Effect of ADP-Induced Aggregation
Inhibition of ADP-induced aggregation was determined in 96-well flat-bottom plates (Costar, USA) at room temperature. The diluted platelet was aliquoted into each well of 96 well plate in the volume of 188 μl. […] The platelet including test compounds was immediately mixed on a shaker at 1050 rpm for 1 min and incubated at room temperature for 20 min. Then, 10 μL volume of 400 μM ADP was added: the final concentration of 20 μM ADP in the total reaction volume of 0.2 mL/well. After shaking of the plate at room temperature for 3 min, the absorption of the samples was determined at 595 nm using a microtiter plate reader (Softmax, Molecular Devices).
A dose-dependent curve on serial dilutions of ADP was accomplished by adding vehicle (DMSO) instead of antagonists in order to calculate EC50 of ADP. Inhibition of aggregation was calculated from the increase of absorption at 595 nm at 3 min of the reaction incubation, compared to results of absorption between the 0 and 20 μM ADP control without antagonists. Sigmoidal dose-response curves and Ki were derived by non-linear regression analysis using the Prism software (GraphPad, San Diego Calif.).

First: CCCc1cc2c(N3CCn4c(nnc4C(F)(F)F)C3)nc(N3CC[C@H](N(CCO)C(C)=O)C3)nc2s1 [Example 9-96, N-(2-Hydroxy-ethyl)-N-{(S)-1-[6-propyl-4-(3-trifluoromethyl-5,6-dihydro-8H-[1,2,4]triazolo[4,3-a]pyrazin-7-yl)-thieno[2,3-d]pyrimidin-2-yl]-pyrrolidin-3-yl}-acetamide]
Second: CCCc1cc2c(N3CCn4c(nnc4C(F)(F)F)C3)nc(N3CC[C@@H](NC(C)=O)C3)nc2s1 [Example 7-3, Hydrochloric acid salt of N-{(R)-1-[6-Propyl-4-(3-trifluoromethyl-5,6-dihydro-8H-[1,2,4]triazolo[4,3-a]pyrazin-7-yl)-thieno[2,3-d]pyrimidin-2-yl]-pyrrolidin-3-yl}-acetamide]
The Ki of the first is 3-fold higher: 78 nM for the first, 26 nM for the second. The second binds more tightly here.

Compared with `CCCC(=O)N1CCN(c2nc(N3CCn4c(nnc4C(F)(F)F)C3)c3cc(CCC)sc3n2)CC1` [Example 7-15, Hydrochloric acid salt of 1-{4-[6-Propyl-4-(3-trifluoromethyl-5,6-dihydro-8H-[1,2,4]triazolo[4,3-a]pyrazin-7-yl)-thieno[2,3-d]pyrimidin-2-yl]-piperazin-1-yl}-butan-1-one], `CCCC(=O)N1CC[C@@H](COc2nc(N3CCn4c(nnc4C(F)(F)F)C3)c3cc(CCC)sc3n2)C1` [Example 8-35, 1-{(R)-3-[6-Propyl-4-(3-trifluoromethyl-5,6-dihydro-8H-[1,2,4]triazolo[4,3-a]pyrazin-7-yl)-thieno[2,3-d]pyrimidin-2-yloxymethyl]-pyrrolidin-1-yl}-butan-1-one] is 12-fold lower in Ki: 600 nM for the first, 49 nM for the second. The second binds more tightly here.

First: CCCc1cc2c(N3CCn4c(nnc4C(F)(F)F)C3)nc(NCCc3c[nH]cn3)nc2s1 [Example 9-45, [2-(1H-Imidazol-4-yl)-ethyl]-[6-propyl-4-(3-trifluoromethyl-5,6-dihydro-8H-[1,2,4]triazolo[4,3-a]pyrazin-7-yl)-thieno[2,3-d]pyrimidin-2-yl]-amine]
Second: CCCc1cc2c(N3CCn4c(nnc4C(F)(F)F)C3)nc(NC(=O)OC)nc2s1 [Example 9-107, [6-Propyl-4-(3-trifluoromethyl-5,6-dihydro-8H-[1,2,4]triazolo[4,3-a]pyrazin-7-yl)-thieno[2,3-d]pyrimidin-2-yl]-carbamic acid methyl ester]
The Ki of the first is 4.5-fold lower: 38 nM for the first, 170 nM for the second. The first binds more tightly here.

Compared with `CCCc1cc2c(N3CCn4c(nnc4C(F)(F)F)C3)nc(N3CCCC(C(N)=O)C3)nc2s1` (centres unmarked) [Example 1-92, 1-[6-Propyl-4-(3-trifluoromethyl-5,6-dihydro-8H-[1,2,4]triazolo[4,3-a]pyrazin-7-yl)-thieno[2,3-d]pyrimidin-2-yl]-piperidine-3-carboxylic acid amide], `CCCc1cc2c(N3CCn4c(nnc4C(F)(F)F)C3)nc(N3CCCC(C(=O)NO)C3)nc2s1` (centres unmarked) [Example 1-95, 1-[6-Propyl-4-(3-trifluoromethyl-5,6-dihydro-8H-[1,2,4]triazolo[4,3-a]pyrazin-7-yl)-thieno[2,3-d]pyrimidin-2-yl]-piperidine-3-carboxylic acid hydroxyamide] is 2.7-fold lower in Ki: 30 nM for the first, 11 nM for the second. The second binds more tightly here.

Compared with `CCCc1cc2c(N3CCn4c(nnc4C(F)(F)F)C3)nc(OCCN(C)C(C)=O)nc2s1` [Example 9-97, N-Methyl-N-{2-[6-propyl-4-(3-trifluoromethyl-5,6-dihydro-8H-[1,2,4]triazolo[4,3-a]pyrazin-7-yl)-thieno[2,3-d]pyrimidin-2-yloxy]-ethyl}-acetamide], `CCCc1cc2c(N3CCn4c(nnc4C(F)(F)F)C3)nc(OCCCCNC(C)=O)nc2s1` [Example 9-89, N-{4-[6-Propyl-4-(3-trifluoromethyl-5,6-dihydro-8H-[1,2,4]triazolo[4,3-a]pyrazin-7-yl)-thieno[2,3-d]pyrimidin-2-yloxy]-butyl}-acetamide] is 48-fold higher in Ki: 6 nM for the first, 290 nM for the second.

First: CCCc1cc2c(N3CCn4c(nnc4C(F)(F)F)C3)nc(-n3cc(C)cn3)nc2s1 [Example 9-55, 7-[2-(4-Methyl-pyrazol-1-yl)-6-propyl-thieno[2,3-d]pyrimidin-4-yl]-3-trifluoromethyl-5,6,7,8-tetrahydro-[1,2,4]triazolo[4,3-a]pyrazine]
Second: CCCc1cc2c(N3CCn4c(nnc4C(F)(F)F)C3)nc(N=[N+]=[N-])nc2s1 [Example 9-37, 7-(2-Azido-6-propyl-thieno[2,3-d]pyrimidin-4-yl)-3-trifluoromethyl-5,6,7,8-tetrahydro-[1,2,4]triazolo[4,3-a]pyrazine]
The Ki of the first is 1.7-fold higher: 340 nM for the first, 200 nM for the second. The second binds more tightly here.

Going from `CCCc1cc2c(N3CCn4c(nnc4C(F)(F)F)C3)nc(OCCNC(=O)C(C)(CO)CO)nc2s1` [Example 7-34, 3-Hydroxy-2-hydroxymethyl-2-methyl-N-{2-[6-propyl-4-(3-trifluoromethyl-5,6-dihydro-8H-[1,2,4]triazolo[4,3-a]pyrazin-7-yl)-thieno[2,3-d]pyrimidin-2-yloxy]-ethyl}-propionamide] to `CCCc1cc2c(N3CCn4c(nnc4C(F)(F)F)C3)nc(OCCNCC(=O)OCC)nc2s1` [Example 3-54, {2-[6-Propyl-4-(3-trifluoromethyl-5,6-dihydro-8H-[1,2,4]triazolo[4,3-a]pyrazin-7-yl)-thieno[2,3-d]pyrimidin-2-yloxy]-ethylamino}-acetic acid ethyl ester], the Ki rises from 16 nM to 206 nM (13-fold).

Compared with `CCCc1cc2c(N3CCn4c(nnc4C(F)(F)F)C3)nc(OCCNC(=O)N3CCCC3)nc2s1` [Example 9-26, Pyrrolidine-1-carboxylic Acid {2-[6-propyl-4-(3-trifluoromethyl-5,6-dihydro-8H-[1,2,4]triazolo[4,3-a]pyrazin-7-yl)-thieno[2,3-d]pyrimidin-2-yloxy]-ethyl}-amide], `CCCc1cc2c(N3CCn4c(nnc4C(F)(F)F)C3)nc(N3CCS(=O)(=O)CC3)nc2s1` [Example 1-124, 7-[2-(1,1-Dioxo-1lambda*6*-thiomorpholin-4-yl)-6-propyl-thieno[2,3-d]pyrimidin-4-yl]-3-trifluoromethyl-5,6,7,8-tetrahydro-[1,2,4]triazolo[4,3-a]pyrazine] is 4.1-fold lower in Ki: 16 nM for the first, 3.9 nM for the second.

Compared with `CCCc1cc2c(N3CCn4c(nnc4C(F)(F)F)C3)nc(N3CC(O)C(NC(=O)C(C)C)C3)nc2s1` (centres unmarked) [Example 7-20, N-{4-Hydroxy-1-[6-propyl-4-(3-trifluoromethyl-5,6-dihydro-8H-[1,2,4]triazolo[4,3-a]pyrazin-7-yl)-thieno[2,3-d]pyrimidin-2-yl]-pyrrolidin-3-yl}-isobutyramide], `CCCc1cc2c(N3CCn4c(nnc4C(F)(F)F)C3)nc(N3CC[C@H](C(=O)NN)C3)nc2s1` [Example 9-72, (S)-1-[6-Propyl-4-(3-trifluoromethyl-5,6-dihydro-8H-[1,2,4]triazolo[4,3-a]pyrazin-7-yl)-thieno[2,3-d]pyrimidin-2-yl]-pyrrolidine-3-carboxylic acid hydrazide] is 8-fold lower in Ki: 4.8 nM for the first, 0.6 nM for the second. The second binds more tightly here.

Compared with `CCCc1cc2c(N3CCn4c(nnc4C(F)(F)F)C3)nc(N(C)CCC#N)nc2s1` [Example 9-103, 3-{Methyl-[6-propyl-4-(3-trifluoromethyl-5,6-dihydro-8H-[1,2,4]triazolo[4,3-a]pyrazin-7-yl)-thieno[2,3-d]pyrimidin-2-yl]-amino}-propionitrile], `CCCc1cc2c(N3CCn4c(nnc4C(F)(F)F)C3)nc(N(C)CCC(N)=O)nc2s1` [Example 9-104, 3-{Methyl-[6-propyl-4-(3-trifluoromethyl-5,6-dihydro-8H-[1,2,4]triazolo[4,3-a]pyrazin-7-yl)-thieno[2,3-d]pyrimidin-2-yl]-amino}-propionamide] is 5-fold lower in Ki: 70 nM for the first, 14 nM for the second. The second binds more tightly here.
